Consider 7 molecules from patent publication US10603298B2, “Succinate dehydrogenase inhibitors (SDHi's)” (Medical Research Council, priority 2014, dated 2020).

The test system of one test is complex II. The conditions noted are these: cited from earlier work; for concentration to achieve half-maximal inhibition: Drose et al 2011.
Test [1] deals with ischemia-reperfusion injury. Conditions: chemical preconditioning, rats; Hu et al, Hirata et al; cited from earlier work.
The test system of test [2] is succinate accumulation in the ischaemic myocardium. As to the kind of experiment: Succinate accumulation in the ischaemic myocardium in vivo (LC-MS). The conditions noted are these: i.v. infusion in vivo, mouse; 30 min ischaemia. The procedure:
For the in vivo heart IR model an open-chest, in situ heart model was used^31,32. Male mice (8-10 weeks; Charles River Laboratories, UK) were anaesthetised with sodium pentobarbital (70 mg/kg intraperitoneally (i.p.)), intubated endotracheally and ventilated with 3 cm H2O positive-end expiratory pressure. Adequacy of anaesthesia was monitored using corneal and withdrawal reflexes. Ventilation frequency was kept at 110 breaths per minute with tidal volume between 125-150 μL. A thoracotomy was performed and the heart exposed by stripping the pericardium. A prominent branch of the left anterior descending coronary artery (LAD) was surrounded by a 7-0 Prolene suture that was then passed through a small plastic tube. Ischaemia was induced by tightening the tubing against the heart surface. To assess metabolites during IR in vivo, mice were divided into three groups: 30 min ischaemia, 30 min ischaemia plus 5 min reperfusion and 30 min sham-operation in which the suture was placed but the LAD was not occluded. At the end of each protocol tissue was removed from the at risk and peripheral areas of the heart, selected visually by comparing white versus red tissue, and snap-frozen in liquid nitrogen. Sham-operated tissue was removed from the presumed risk zone. Infarct size was assessed after 30 min of ischaemia followed by 120 min reperfusion using 2% triphenyltetrazolium chloride staining and is expressed as a percentage of the risk zone^33. […] For the LC separation, column A was Sequant Zic-Hilic (150 mm×4.6 mm, internal diameter 3.5 μm) with a guard column (20 mm×2.1 mm 3.5 μm) from HiChrom, Reading, UK. […] (150 mm×2.1 mm i.d. 3.5 μm) with guard column (20 mm×2.1 mm i.d. […]) from HiChrom, Reading, UK. […] Spectra were analysed using both targeted and untargeted approaches. For the targeted approach spectra were analysed using XCalibur Qual Browser and XCalibur Quan Browser softwares (Thermo Scientific) by referencing to an internal library of compounds. […] The arrays of spectra were then statistically analysed using the functions explore.data and univariate of the R package mum a^40.

The test system of test [3] is heart, simulated ischemia-reperfusion injury. Conditions: Wojtovich et al 2009; mKATP channel dependent mechanism; cited from earlier work.
For test [4], the system named is ischaemic succinate accumulation (GABA shunt). Briefly: Ex vivo perfused mouse heart, no flow ischaemia: succinate abundance (LC-MS). The conditions noted are these: 30 min no flow ischaemia, vigabatrin 100, 300, 700 μM. The procedure:
FIG. 9: Effect of GABA transaminase inhibition by vigabatrin on GABA shunt and CAC metabolites in the ischaemic myocardium. Perfused mouse hearts were subjected to 30 min no flow ischaemia±continuous infusion of vigabatrin (Vig; 100, 300, and 700 μM) 10 min prior to ischaemia. Heart tissue was snap frozen and a, GABA and b, succinate abundance quantified relative to normoxic levels by LC-MS. n=3, * p<0.05.
Mice were heparinised (200 U i.p.) and anaesthetised with sodium pentobarbital (100 mg/kg i.p.). […]
Equal amounts wet weight murine tissue were lysed in 250 μL extraction solution (ES; 30% acetonitrile, 50% methanol and 20% water) per 10 mg tissue in Precellysis 24 vials, following the manufacturer's instructions. […] For the LC separation, column A was Sequant Zic-Hilic (150 mm×4.6 mm, internal diameter 3.5 μm) with a guard column (20 mm×2.1 mm 3.5 μm) from HiChrom, Reading, UK. […] Gradient: 0-3 min 80% B, 25 min 20% B, 26 min 80% B, 36 min 80% B. Column B was sequant Zic-pHilic (150 mm×2.1 mm i.d. 3.5 μm) with guard column (20 mm×2.1 mm i.d. 3.5 Mm) from HiChrom, Reading, UK. […] Spectra were analysed using both targeted and untargeted approaches. For the targeted approach spectra were analysed using XCalibur Qual Browser and XCalibur Quan Browser softwares (Thermo Scientific) by referencing to an internal library of compounds. […]

Consider `O=C(O)CC[N+](=O)[O-]` [3-nitropropionate], for which, in the test on complex II, the “reversibility of complex II inhibition” value is given as “irreversible”. Besides, in test [1], the ischemia-reperfusion injury entry was “reduced ischemia-reperfusion injury”.
Regarding `NC(=O)c1ncn([C@@H]2O[C@H](CO)[C@@H](O)[C@H]2O)c1N` [AICAR, 5-amino-1-β-D-ribofuranosyl-imidazole-4-carboxamide], the “succinate accumulation in the ischaemic myocardium” value in test [2] is given as “decreased ischaemic succinate levels”.
As for `NOCC(=O)O` [AOA, aminooxyacetate], in test [2], the “succinate accumulation in the ischaemic myocardium” value is recorded as “decreased ischaemic succinate levels”.
Regarding `O=C(CC(=O)C(F)(F)F)c1cccs1` [TTFA, 2-thenoyltrifluoroacetone], in the test on complex II, the “reversibility of complex II inhibition” value is “irreversible”.
For the molecule `COc1[nH]c(=O)c(C(=O)[C@@H](C)C[C@H](C)[C@@H](Cl)CCl)c(O)c1OC` [atpennin A5], in the test with complex II, the “concentration to achieve half-maximal inhibition” value is “nanomolar levels” and the “reversibility of complex II inhibition” value was “irreversible”. Besides, the “protection of the heart against simulated ischemia-reperfusion injury” value in test [3] is on record as “protects the heart against simulated ischemia-reperfusion injury”.
As for `O=C(O)CC(=O)O` [malonate], the “concentration to achieve half-maximal inhibition” value in the test with complex II is reported as “millimolar levels”.
Take `C=CC(N)CCC(=O)O` (stereo not shown) [vigabatrin]: the ischaemic succinate accumulation result in test [4] is “did not decrease ischaemic succinate accumulation”.
